Assay results from the NIST ThermoML archive (doi:10.1021/acs.jced.8b00591).

Assay: xn = mol fraction of the nth substance listed
Details: 101.3 kPa, Liquid; for viscosity: Falling or rolling sphere viscometry; for mass density: Vibrating tube method

CCCC[n+]1ccn(C)c1.O=S(=O)([N-]S(=O)(=O)C(F)(F)F)C(F)(F)F + CCOC(=O)OCC
Details | mass density [kg/m3] | viscosity [mPa·s]
288.15 K, x1 = 0.1025 | 1086.84 | 2.12
288.15 K, x1 = 0.2198 | 1177.9 | 4.415
288.15 K, x1 = 0.3178 | 1236.57 | 7.583
288.15 K, x1 = 0.4211 | 1285.86 | 13.26
288.15 K, x1 = 0.5268 | 1327.09 | 20.12
288.15 K, x1 = 0.622 | 1358.33 | 28.36
288.15 K, x1 = 0.7193 | 1385.68 | 38.93
288.15 K, x1 = 0.8139 | 1408.25 | 50.88
288.15 K, x1 = 0.9088 | 1428.49 | 64.94
288.15 K, x1 = 1 | 1445.66 | 78.02
293.15 K, x1 = 0.1025 | 1081.45 | 1.928
293.15 K, x1 = 0.2198 | 1172.7 | 3.925
293.15 K, x1 = 0.3178 | 1231.47 | 6.526
293.15 K, x1 = 0.4211 | 1280.83 | 11.18
293.15 K, x1 = 0.5268 | 1322.13 | 17.25
293.15 K, x1 = 0.622 | 1353.42 | 23.42
293.15 K, x1 = 0.7193 | 1380.79 | 31.68
293.15 K, x1 = 0.8139 | 1403.38 | 40.79
293.15 K, x1 = 0.9088 | 1423.65 | 51.44
293.15 K, x1 = 1 | 1440.84 | 61.32
298.15 K, x1 = 0.1025 | 1076.05 | 1.764
298.15 K, x1 = 0.2198 | 1167.48 | 3.517
298.15 K, x1 = 0.3178 | 1226.35 | 5.739
298.15 K, x1 = 0.4211 | 1275.8 | 9.492
298.15 K, x1 = 0.5268 | 1317.16 | 14.77
298.15 K, x1 = 0.622 | 1348.49 | 19.58
298.15 K, x1 = 0.7193 | 1375.9 | 26.16
298.15 K, x1 = 0.8139 | 1398.52 | 33.25
298.15 K, x1 = 0.9088 | 1418.81 | 41.43
298.15 K, x1 = 1 | 1436.01 | 48.93
303.15 K, x1 = 0.1025 | 1070.65 | 1.618
303.15 K, x1 = 0.2198 | 1162.26 | 3.168
303.15 K, x1 = 0.3178 | 1221.23 | 5.085
303.15 K, x1 = 0.4211 | 1270.77 | 8.179
303.15 K, x1 = 0.5268 | 1312.2 | 12.6
303.15 K, x1 = 0.622 | 1343.58 | 17.03
303.15 K, x1 = 0.7193 | 1371.04 | 21.88
303.15 K, x1 = 0.8139 | 1393.68 | 27.57
303.15 K, x1 = 0.9088 | 1413.97 | 34.06
303.15 K, x1 = 1 | 1431.21 | 39.84
308.15 K, x1 = 0.1025 | 1065.23 | 1.492
308.15 K, x1 = 0.2198 | 1157.03 | 2.873
308.15 K, x1 = 0.3178 | 1216.12 | 4.539
308.15 K, x1 = 0.4211 | 1265.74 | 7.219
308.15 K, x1 = 0.5268 | 1307.25 | 10.76
308.15 K, x1 = 0.622 | 1338.67 | 14.69
308.15 K, x1 = 0.7193 | 1366.17 | 18.7
308.15 K, x1 = 0.8139 | 1388.84 | 23.2
308.15 K, x1 = 0.9088 | 1409.18 | 28.32
308.15 K, x1 = 1 | 1426.43 | 32.91
313.15 K, x1 = 0.1025 | 1059.8 | 1.385
313.15 K, x1 = 0.2198 | 1151.8 | 2.614
313.15 K, x1 = 0.3178 | 1210.99 | 3.977
313.15 K, x1 = 0.4211 | 1260.71 | 6.414
313.15 K, x1 = 0.5268 | 1302.3 | 9.287
313.15 K, x1 = 0.622 | 1333.78 | 12.63
313.15 K, x1 = 0.7193 | 1361.32 | 16.35
313.15 K, x1 = 0.8139 | 1384.01 | 19.64
313.15 K, x1 = 0.9088 | 1404.39 | 23.69
313.15 K, x1 = 1 | 1421.66 | 27.56
318.15 K, x1 = 0.1025 | 1054.35 | 1.286
318.15 K, x1 = 0.2198 | 1146.57 | 2.391
318.15 K, x1 = 0.3178 | 1205.88 | 3.591
318.15 K, x1 = 0.4211 | 1255.69 | 5.815
318.15 K, x1 = 0.5268 | 1297.36 | 8.069
318.15 K, x1 = 0.622 | 1328.9 | 10.92
318.15 K, x1 = 0.7193 | 1356.48 | 14.18
318.15 K, x1 = 0.8139 | 1379.19 | 16.89
318.15 K, x1 = 0.9088 | 1399.6 | 20.05
318.15 K, x1 = 1 | 1416.91 | 23.33
323.15 K, x1 = 0.1025 | 1048.88 | 1.198
323.15 K, x1 = 0.2198 | 1141.33 | 2.194
323.15 K, x1 = 0.3178 | 1200.77 | 3.259
323.15 K, x1 = 0.4211 | 1250.68 | 5.216
323.15 K, x1 = 0.5268 | 1292.44 | 7.105
323.15 K, x1 = 0.622 | 1324.02 | 9.492
323.15 K, x1 = 0.7193 | 1351.66 | 12.28
323.15 K, x1 = 0.8139 | 1374.39 | 14.6
323.15 K, x1 = 0.9088 | 1394.85 | 17.26
323.15 K, x1 = 1 | 1412.17 | 19.97
328.15 K, x1 = 0.1025 | 1043.4 | 1.117
328.15 K, x1 = 0.2198 | 1136.07 | 2.025
328.15 K, x1 = 0.3178 | 1195.65 | 2.978
328.15 K, x1 = 0.4211 | 1245.68 | 4.71
328.15 K, x1 = 0.5268 | 1287.5 | 6.138
328.15 K, x1 = 0.622 | 1319.16 | 8.288
328.15 K, x1 = 0.7193 | 1346.84 | 10.66
328.15 K, x1 = 0.8139 | 1369.58 | 12.69
328.15 K, x1 = 0.9088 | 1390.1 | 15
328.15 K, x1 = 1 | 1407.45 | 17.41
